Consider eight compounds from US9255094B2, “Pyrido[4,3-B]indoles and methods of use” (Medivation Technologies, Inc., priority 2009, dated 2016).

The term inhibition denotes the change of the read-out against control, counted positive when it falls.

Assay [1] deals with T1, human recombinant adrenergic α2B receptor (Homo sapiens, UniProt P18089).
T1 construct: expressed in transfected cells; host or cells: Chinese hamster ovary (CHO-K1) cells
T1 sequence (P18089 1-450): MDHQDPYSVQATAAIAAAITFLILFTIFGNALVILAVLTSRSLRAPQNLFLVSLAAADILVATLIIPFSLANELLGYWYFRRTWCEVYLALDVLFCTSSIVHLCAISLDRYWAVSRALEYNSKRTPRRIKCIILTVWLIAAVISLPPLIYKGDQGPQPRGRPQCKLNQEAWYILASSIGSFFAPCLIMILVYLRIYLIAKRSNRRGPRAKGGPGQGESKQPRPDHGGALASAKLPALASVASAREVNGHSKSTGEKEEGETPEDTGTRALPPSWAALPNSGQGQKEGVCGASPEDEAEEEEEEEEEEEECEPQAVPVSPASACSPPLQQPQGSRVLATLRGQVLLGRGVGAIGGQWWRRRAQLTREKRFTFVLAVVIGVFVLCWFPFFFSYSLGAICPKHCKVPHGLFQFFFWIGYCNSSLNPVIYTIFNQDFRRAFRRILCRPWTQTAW
Kind of assay: Adrenergic α2B radioligand binding assay ([3H]Rauwolscine). Particulars: 2.5 nM [3H]Rauwolscine, CHO-K1 cells; for inhibition at 1 µM: compound at 1 μM, read-out: Percent Inhibition of ligand binding, Adrenergic (1 μM) a2B; for inhibition at 0.1 µM: compound at 0.1 μM, read-out: Percent Inhibition of ligand binding, Adrenergic (0.1 μM) a2B. The method, then: To evaluate in radioligand binding assays the activity of compounds of the invention, human recombinant adrenergic α2B receptor expressed in Chinese hamster ovary (CHO-K1) cells (Uhlen S et al., Eur. J. Pharmacol. 343(1):93, 1998) in a modified Tris-HCl buffer (50 mM Tris-HCl, pH 7.4, 12.5 mM MgCl2, 1 mM EDTA, 0.2% BSA) was used. Compounds of the invention were incubated with 2.5 nM [^3H]Rauwolscine for 60 min at 25° C. Non-specific binding was estimated in the presence of 10 μM Prozosin. Receptor proteins were filtered and washed, the filters were then counted to determine [^3H]Rauwolscine specifically bound.

The target in assay [2] is human recombinant dopamine D2L receptor (Homo sapiens, UniProt P14416). Kind of assay: Dopamine D2L radioligand binding assay ([3H]Spiperone). Particulars: compound at 1 μM, 0.16 nM [3H]Spiperone, CHO cells, read-out: Percent Inhibition of ligand binding, Dopamine (1μM). Put shortly: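 Test compounds at 1 μM or lower (1% DMSO vehicle) incubated with 0.16 nM [3H]Spiperone for 120 min at 25 °C; nonspecific binding defined with 10 μM haloperidol. Filtration and counting of bound radioligand; values given as percent inhibition of specific binding.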

Assay [3] deals with T2, human recombinant serotonin (5-Hydroxytryptamine) 5-HT6 receptor (Homo sapiens, UniProt P50406).
T2 construct: expressed in transfected cells; host or cells: human HeLa cells
Kind of assay: Serotonin 5-HT6 radioligand binding assay ([3H]LSD). Particulars: HeLa cells; for inhibition at 1 µM: compound at 1 μM, read-out: Percent Inhibition of ligand binding, Serotonin (1 μM) 5-HT6; for inhibition at 0.1 µM: compound at 0.1 μM, read-out: Percent Inhibition of ligand binding, Serotonin (0.1 μM) 5-HT6. How it is done: Compounds of the invention were incubated with 1.5 nM [3H]Lysergic acid diethylamide (LSD) for 120 min at 37° C. […] Receptor proteins were filtered and washed, the filters were then counted to determine [3H]LSD specifically bound. Compounds were screened at 1 μM or lower, using 1% DMSO as vehicle. Biochemical assay results are presented as the percent inhibition of specific binding in Table 4.

In assay [4] the target is human recombinant serotonin (5-Hydroxytryptamine) 5-HT7 receptor (Homo sapiens, UniProt P34969). As to the kind of experiment: Serotonin 5-HT7 radioligand binding assay ([3H]LSD). Particulars: 5.5 nM [3H]LSD, CHO cells; for inhibition at 1 µM: compound at 1 μM, read-out: Percent Inhibition of ligand binding, Serotonin (1 μM) 5-HT7; for inhibition at 0.1 µM: compound at 0.1 μM, read-out: Percent Inhibition of ligand binding, Serotonin (0.1 μM) 5-HT7. The method, then: Compounds of invention were incubated with 5.5 nM [^3H] Lysergic acid diethylamide (LSD) for 2 h at 25° C. […] Receptor proteins were filtered and washed, the filters were then counted to determine [^3H]LSD specifically bound. Compounds were screened at 1 μM or lower, using 1% DMSO as vehicle. Biochemical assay results are presented as the percent inhibition of specific binding in Table 4.

The target in assay [5] is T3, human recombinant adrenergic α2A receptor (Homo sapiens, UniProt P08913).
T3 construct: expressed in transfected cells; host or cells: insect Sf9 cells
T3 sequence (P08913 1-465): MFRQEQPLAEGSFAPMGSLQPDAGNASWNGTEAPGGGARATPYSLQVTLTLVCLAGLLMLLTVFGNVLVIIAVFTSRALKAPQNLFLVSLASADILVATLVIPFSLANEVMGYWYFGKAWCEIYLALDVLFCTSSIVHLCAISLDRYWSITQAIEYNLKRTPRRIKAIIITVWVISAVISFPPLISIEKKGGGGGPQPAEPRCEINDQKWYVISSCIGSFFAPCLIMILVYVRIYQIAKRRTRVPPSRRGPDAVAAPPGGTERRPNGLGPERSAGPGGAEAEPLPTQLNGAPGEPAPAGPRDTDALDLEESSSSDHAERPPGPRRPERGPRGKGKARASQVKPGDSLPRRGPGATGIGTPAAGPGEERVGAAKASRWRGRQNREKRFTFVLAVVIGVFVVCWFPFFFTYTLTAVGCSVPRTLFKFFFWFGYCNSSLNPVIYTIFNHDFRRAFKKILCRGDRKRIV
Kind of assay: Adrenergic α2A radioligand binding assay ([3H]MK-912). Particulars: 1 nM [3H]MK-912, insect Sf9 cells; for inhibition at 1 µM: compound at 1 μM, read-out: Percent Inhibition of ligand binding, Adrenergic (1 μM) a2A; for inhibition at 0.1 µM: compound at 0.1 μM, read-out: Percent Inhibition of ligand binding, Adrenergic (0.1 μM) a2A. The method, then:
To evaluate in radioligand binding assays the activity of compounds of the invention, human recombinant adrenergic α2A receptor expressed in insect Sf9 cells (Uhlen S et al. J. Pharmacol. Exp. Ther. 271:1558, 1994) in a modified Tris-HCl buffer (50 mM Tris-HCl, pH 7.4, 12.5 mM MgCl2, 2 mM EDTA) was used. Compounds of invention were incubated with 1 nM [^3H]MK-912 for 60 min at 25° C. MK912 is (2S-trans)-1,3,4,5′,6,6′,7,12b-octahydro-1′,3′-dimethyl-spiro[2H-benzofuro[2,3-a]quinolizine-2,4′(1′H)-pyrimidin]-2′(3′H)-one hydrochloride Non-specific binding was estimated in the presence of 10 μM WB-4101 (2-(2,6-dimethoxyphenoxyethyl)aminomethyl-1,4-benzodioxane hydrochloride). Receptor proteins were filtered and washed, the filters were then counted to determine [^3H]MK-912 specifically bound.

Chain of human recombinant dopamine D2L receptor (P14416 whole entry): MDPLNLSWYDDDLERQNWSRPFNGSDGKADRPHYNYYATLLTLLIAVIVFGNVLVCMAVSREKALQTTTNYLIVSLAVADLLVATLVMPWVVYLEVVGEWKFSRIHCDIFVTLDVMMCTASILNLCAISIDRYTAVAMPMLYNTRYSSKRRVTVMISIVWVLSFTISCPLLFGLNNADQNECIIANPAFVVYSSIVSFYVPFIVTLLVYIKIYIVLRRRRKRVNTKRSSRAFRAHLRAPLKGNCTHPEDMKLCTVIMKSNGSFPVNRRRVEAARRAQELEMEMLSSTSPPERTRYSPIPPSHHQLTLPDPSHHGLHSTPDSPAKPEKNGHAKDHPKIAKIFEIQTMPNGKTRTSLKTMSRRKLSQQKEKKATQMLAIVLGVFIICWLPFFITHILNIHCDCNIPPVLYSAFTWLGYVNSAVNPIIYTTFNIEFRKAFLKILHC
T2 sequence (P50406 whole entry): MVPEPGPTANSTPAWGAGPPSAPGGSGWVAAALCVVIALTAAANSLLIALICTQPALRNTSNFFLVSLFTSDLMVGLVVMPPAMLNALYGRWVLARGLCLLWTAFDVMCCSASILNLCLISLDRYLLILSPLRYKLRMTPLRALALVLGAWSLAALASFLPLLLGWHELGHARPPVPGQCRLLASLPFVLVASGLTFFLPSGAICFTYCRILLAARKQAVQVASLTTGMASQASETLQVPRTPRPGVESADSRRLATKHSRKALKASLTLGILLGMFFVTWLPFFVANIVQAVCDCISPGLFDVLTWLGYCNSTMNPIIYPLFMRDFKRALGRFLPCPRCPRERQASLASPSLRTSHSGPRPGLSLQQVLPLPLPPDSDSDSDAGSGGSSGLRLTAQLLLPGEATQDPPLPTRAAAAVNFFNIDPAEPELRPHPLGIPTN
Chain of human recombinant serotonin (5-Hydroxytryptamine) 5-HT7 receptor (P34969 whole entry): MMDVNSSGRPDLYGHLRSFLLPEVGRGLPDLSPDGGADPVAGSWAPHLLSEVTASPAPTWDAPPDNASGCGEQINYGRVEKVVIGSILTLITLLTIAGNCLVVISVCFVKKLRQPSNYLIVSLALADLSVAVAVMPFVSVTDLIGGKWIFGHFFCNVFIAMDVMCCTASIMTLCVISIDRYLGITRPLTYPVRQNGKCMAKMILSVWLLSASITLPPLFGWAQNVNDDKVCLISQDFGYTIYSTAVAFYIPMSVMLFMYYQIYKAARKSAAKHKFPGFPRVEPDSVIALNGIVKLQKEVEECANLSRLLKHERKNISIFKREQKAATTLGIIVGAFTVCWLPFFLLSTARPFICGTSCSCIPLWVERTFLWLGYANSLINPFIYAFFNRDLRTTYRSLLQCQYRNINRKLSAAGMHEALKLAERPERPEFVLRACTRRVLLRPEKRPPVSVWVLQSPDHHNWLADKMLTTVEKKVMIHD

As to `Cc1ccc2c(c1)c1c(n2CCc2ccc(C(F)(F)F)nc2)CCNC1` [Compound 1-41, 8-methyl-5-(2-(6-(trifluoromethyl)pyridin-3-yl)ethyl)-2,3,4,5-tetrahydro-1H-pyrido[4,3-b]indole], the inhibition at 1 µM is 89% in assay [1]; -8% in assay [2]; 14% in assay [3]; 59% in assay [4]; 58% in assay [5].

Take `Cc1ccc2c(c1)c1c(n2CCc2ccc(C)nc2)CCN(CC(F)(F)F)C1` [Compound 1-65, 8-methyl-5-(2-(6-methylpyridin-3-yl)ethyl)-2-(2,2,2-trifluoroethyl)-2,3,4,5-tetrahydro-1H-pyrido[4,3-b]indole]: the inhibition at 0.1 µM was -9% in assay [1], -6% in assay [3], -15% in assay [4] and 6% in assay [5]. In assay [2], the inhibition at 1 µM was 12%.

Consider `Cc1ccc2c(c1)c1c(n2CC(=O)c2ccc(F)cc2)CCN(C)C1` [Compound 1-39, 2-(2,8-dimethyl-3,4-dihydro-1H-pyrido[4,3-b]indol-5(2H)-yl)-1-(4-fluorophenyl)ethanone], for which the inhibition at 1 µM in assay [1] is 92%; in assay [2], 57%; in assay [3], 62%; in assay [4] it was 95%; in assay [5], 88%.

Regarding `CC[C@](O)(Cn1c2c(c3cc(C)ccc31)CN(C)CC2)c1ccncc1` [Compound 1-63, (R)-1-(2,8-Dimethyl-3,4-dihydro-1H-pyrido[4,3-b]indol-5(2H)-yl)-2-(pyridine-4-yl)butan-2-ol], the inhibition at 0.1 µM amounted to 47% in assay [1], 25% in assay [3], 25% in assay [4] and 12% in assay [5]. In addition, the inhibition at 1 µM in assay [2] amounted to 14%.

Turning to `CN1CCc2c(c3cc(Cl)ccc3n2CC(=O)c2ccc(F)cc2)C1` [Compound 1-37, 2-(8-chloro-2-methyl-3,4-dihydro-1H-pyrido[4,3-b]indol-5(2H)-yl)-1-(4-fluorophenyl)ethanone], the inhibition at 1 µM was found to be 87% in assay [1]; 85% in assay [2]; 71% in assay [3]; 73% in assay [4]; 87% in assay [5].

Turning to `Cc1ccc2c(c1)c1c(n2CCc2ccc(C)nc2)CCN(CCCO)C1` [Compound 1-42, 3-(8-methyl-5-(2-(6-methylpyridin-3-yl)ethyl)-3,4-dihydro-1H-pyrido[4,3-b]indole-2(5H)-yl)propan-1-ol], the inhibition at 1 µM in assay [1] was found to be 39%; in assay [2] it was 11%; in assay [3], 43%; in assay [4], 63%; in assay [5], 35%.

`CC[C@](O)(Cn1c2c(c3cc(C)ccc31)CN(C)CC2)c1ccc(F)cc1` [Compound 1-60, (R)-1-(2,8-Dimethyl-3,4-dihydro-1H-pyrido[4,3-b]indol-5(2H)-yl)-2-(4-fluorophenyl)butan-2-ol]: the inhibition at 0.1 µM in assay [1] is 1%; in assay [3], 48%; in assay [4], 16%; in assay [5], 3%. For the same compound, the inhibition at 1 µM in assay [2] was -14%.

In the case of `CN1CCc2c(c3cc(Cl)ccc3n2CC(=O)c2ccc(Cl)cc2)C1` [Compound 1-38, 2-(8-chloro-2-methyl-3,4-dihydro-1H-pyrido[4,3-b]indol-5(2H)-yl)-1-(4-chlorophenyl)ethanone], the inhibition at 1 µM in assay [1] was determined as 92%; in assay [2], 44%; in assay [3] it was 57%; in assay [4] it was 81%; in assay [5] it was 90%.
